The target of experiment [1] is T1, human adenosine A2a receptor (Homo sapiens, UniProt P29274).
T1 construct: expressed in transfected cells; host or cells: CHO-K1 cells with cAMP inducible beta-galactosidase reporter gene
In words: Adenosine A2a Receptor Functional Assay (A2AGAL2). It is filed as cell-based. Conditions: CHO-K1 cells overexpressing human A2a receptor, cAMP inducible beta-galactosidase reporter, 15 nM NECA agonist challenge. As for the experimental part:
Adenosine A2a Receptor Functional Assay (A2AGAL2)
To initiate the functional assay, cryopreserved CHO—K1 cells overexpressing the human adenosine A2a receptor and containing a cAMP inducible beta-galactosidase reporter gene were thawed, centrifuged, DMSO containing media removed, and then seeded with fresh culture media into clear 384-well tissue culture treated plates (BD #353961) at a concentration of 10K cells/well. Prior to assay, these plates were cultured for two days at 37° C., 5% CO2, 90% Rh. On the day of the functional assay, culture media was removed and replaced with 45 uL assay medium (Hams/F-12 Modified (Mediatech #10-080CV) supplemented w/0.1% BSA). Test compounds were diluted and 11 point curves created at a 1000× concentration in 100% DMSO. Immediately after addition of assay media to the cell plates, 50 nL of the appropriate test compound antagonist or agonist control curves were added to cell plates using a Cartesian Hummingbird. Compound curves were allowed to incubate at room temperature on cell plates for approximately 15 minutes before addition of a 15 nM NECA (Sigma E2387) agonist challenge (5 uL volume). A control curve of NECA, a DMSO/Media control, and a single dose of Forskolin (Sigma F3917) were also included on each plate. After additions, cell plates were allowed to incubate at 37° C., 5% CO2, 90% Rh for 5.5-6 hours. After incubation, media was removed, and cell plates were washed 1× 50 uL with DPBS w/o Ca & Mg (Mediatech 21-031-CV). Into dry wells, 20 uL of 1× Reporter Lysis Buffer (Promega E3971 (diluted in dH2O from 5× stock)) was added to each well and plates frozen at −20° C. overnight. For β-galactosidase enzyme calorimetric assay, plates were thawed out at room temperature and 20 μL 2× assay buffer (Promega) was added to each well. Color was allowed to develop at 37° C., 5% CO2, 90% Rh for 1-1.5 h or until reasonable signal appeared. The calorimetric reaction was stopped with the addition of 60 μL/well 1M sodium carbonate. Plates were counted at 405 nm on a SpectraMax Microplate Reader (Molecular Devices). Data was analyzed in Microsoft Excel and IC/EC50 curves were fit using a standardized macro.

The target of experiment [2] is T2, human adenosine A1 receptor (Homo sapiens, UniProt P30542).
T2 construct: expressed in transfected cells; host or cells: CHO-K1 cells with cAMP inducible beta-galactosidase reporter gene
T2 sequence (P30542 1-326): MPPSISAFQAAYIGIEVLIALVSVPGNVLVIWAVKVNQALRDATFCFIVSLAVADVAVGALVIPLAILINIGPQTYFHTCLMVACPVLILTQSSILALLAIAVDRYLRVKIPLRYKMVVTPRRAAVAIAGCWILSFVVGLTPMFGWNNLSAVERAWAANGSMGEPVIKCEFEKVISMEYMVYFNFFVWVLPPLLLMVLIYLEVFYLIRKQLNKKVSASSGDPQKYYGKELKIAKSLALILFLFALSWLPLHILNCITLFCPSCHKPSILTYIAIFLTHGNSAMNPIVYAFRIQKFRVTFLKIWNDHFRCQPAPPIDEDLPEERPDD
As to the kind of experiment: Adenosine A1 Receptor Functional Assay (A1GAL2). Conditions: CHO-K1 cells overexpressing human A1 receptor, cAMP inducible beta-galactosidase reporter, 4 nM r-PIA/1 uM Forskolin agonist challenge. In kind it is cell-based. As to the method:
Adenosine A1 Receptor Functional Assay (A1GAL2)
To initiate the functional assay, cryopreserved CHO—K1 cells overexpressing the human adenosine A1 receptor and containing a cAMP inducible beta-galactosidase reporter gene were thawed, centrifuged, DMSO containing media removed, and then seeded with fresh culture media into clear 384-well tissue culture treated plates (BD #353961) at a concentration of 10K cells/well. Prior to assay, these plates were cultured for two days at 37° C., 5% CO2, 90% Rh. On the day of the functional assay, culture media was removed and replaced with 45 uL assay medium (Hams/F-12 Modified (Mediatech #10-080CV) supplemented w/0.1% BSA). Test compounds were diluted and 11 point curves created at a 1000× concentration in 100% DMSO. Immediately after addition of assay media to the cell plates, 50 nL of the appropriate test compound antagonist or agonist control curves were added to cell plates using a Cartesian Hummingbird. Compound curves were allowed to incubate at room temperature on cell plates for approximately 15 minutes before addition of a 4 nM r-PIA (Sigma P4532)/1 uM Forskolin (Sigma F3917) agonist challenge (5 uL volume). A control curve of r-PIA in 1 uM Forskolin, a DMSO/Media control, and a single dose of Forskolin were also included on each plate. After additions, cell plates were allowed to incubate at 37° C., 5% CO2, 90% Rh for 5.5-6 hours. After incubation, media was removed, and cell plates were washed lx 5OuL with DPBS w/o Ca & Mg (Mediatech 21-031-CV).
Into dry wells, 20 uL of 1× Reporter Lysis Buffer (Promega E3971 (diluted in dH2O from 5× stock)) was added to each well and plates frozen at −20° C. overnight. For β-galactosidase enzyme calorimetric assay, plates were thawed out at room temperature and 20 μL 2× assay buffer (Promega) was added to each well. Color was allowed to develop at 37° C., 5% CO2, 90% Rh for 1-1.5 h or until reasonable signal appeared. The calorimetric reaction was stopped with the addition of 60 μL/well 1M sodium carbonate. Plates were counted at 405 nm on a SpectraMax Microplate Reader (Molecular Devices). Data was analyzed in Microsoft Excel and IC/EC50 curves were fit using a standardized macro.

In experiment [3] the target is T3, human A2a adenosine receptor (Homo sapiens, UniProt P29274).
T3 construct: purchased PerkinElmer RB-HA2a; host or cells: HEK293 cells (plasma membrane preparation)
In words: Ligand Binding Assay for Adenosine A2a Receptor (A2A-B). The conditions noted are these: plasma membrane of HEK293 cells containing human A2a receptor, radioligand [3H]CGS21680. As to the method:
Ligand Binding Assay for Adenosine A2a Receptor
Ligand binding assay of adenosine A2a receptor was performed using plasma membrane of HEK293 cells containing human A2a adenosine receptor (PerkinElmer, RB-HA2a) and radioligand [^3H]CGS21680 (PerkinElmer, NET1021). Assay was set up in 96-well polypropylene plate in total volume of 200 μL by sequentially adding 20 μL1:20 diluted membrane, 130 μL assay buffer (50 mM Tris•HCl, pH7.4 10 mM MgCl2, 1 mM EDTA) containing [^3H] CGS21680, 50 μL diluted compound (4×) or vehicle control in assay buffer. Nonspecific binding was determined by […] NECA. Reaction was carried out at room temperature for 2 hours before filtering through 96-well GF/C filter plate pre-soaked in 50 mM Tris•HCl, pH7.4 containing 0.3% polyethylenimine. Plates were then washed 5 times with cold 50 mM Tris•HCl, pH7.4, dried and sealed at the bottom. Microscintillation fluid 30 μL was added to each well and the top sealed. Plates were counted on Packard Topcount for [^3H]. Data was analyzed in Microsoft Excel and GraphPad Prism programs. (Varani, K.; Gessi, S.; Dalpiaz, A.; Borea, P. A. British Journal of Pharmacology, 1996, 117, 1693)

The structures appear in SMILES notation. Counter-ions that a name gives are not always drawn. Some results are limits rather than exact numbers.

T3 sequence (P29274 whole entry): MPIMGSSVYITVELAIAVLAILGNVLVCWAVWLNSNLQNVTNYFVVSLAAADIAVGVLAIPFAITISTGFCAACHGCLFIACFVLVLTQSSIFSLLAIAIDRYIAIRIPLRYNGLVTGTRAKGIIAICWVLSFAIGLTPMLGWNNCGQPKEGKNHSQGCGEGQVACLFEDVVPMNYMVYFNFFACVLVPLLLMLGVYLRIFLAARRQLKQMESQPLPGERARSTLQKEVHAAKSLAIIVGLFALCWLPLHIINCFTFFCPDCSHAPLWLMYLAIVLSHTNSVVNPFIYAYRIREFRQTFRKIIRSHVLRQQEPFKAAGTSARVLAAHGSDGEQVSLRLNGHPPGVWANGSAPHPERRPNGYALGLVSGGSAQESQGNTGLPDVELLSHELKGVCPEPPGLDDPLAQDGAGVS
T1 sequence (P29274 whole entry): as above

Turning to `CC(c1ccccc1)c1cc2c(N)nc(-c3cccc(C#N)c3)nc2s1` (racemic) [Example 10, (±)-3-[4-Amino-6-(1-phenyl-ethyl)-thieno[2,3-d]pyrimidin-2-yl]-benzonitrile], the Ki stood at 0.34 µM in experiment [1] and 1.77 µM in experiment [2].

For `N#Cc1cccc(-c2nc(N)c3cc(Cc4ccccc4)sc3n2)c1` [Example 1, 3-(4-Amino-6-benzyl-thieno[2,3-d]pyrimidin-2-yl)-benzonitrile], the values for the Ki in experiment [1], in experiment [3] and in experiment [2] were 0.0106 µM, 0.0168 µM and 0.205 µM, respectively.

`N#Cc1cccc(-c2nc(N)c3cc(CCc4ccccc4)sc3n2)c1` [Example 2, 3-(4-Amino-6-phenethyl-thieno[2,3-d]pyrimidin-2-yl)-benzonitrile]: the Ki came to 0.802 µM in experiment [1] and 4.64 µM in experiment [2].

For `C=C(c1ccccc1)c1cc2c(N)nc(-c3cccc(C#N)c3)nc2s1` [Example 5, 3-[4-Amino-6-(1-phenyl-vinyl)-thieno[2,3-d]pyrimidin-2-yl]-benzonitrile], the Ki in experiment [1] was 0.0634 µM; in experiment [2], greater than 1.04 µM.

For `N#Cc1cccc(-c2nc(N)c3cc(C4(c5ccccc5)CC4)sc3n2)c1` [Example 6, 3-[4-Amino-6-(1-phenyl-cyclopropyl)-thieno[2,3-d]pyrimidin-2-yl]-benzonitrile], the values for the Ki in experiment [1] and in experiment [2] were 0.222 µM and greater than 0.61 µM, respectively.

As for `COc1ccccc1Cc1cc2c(N)nc(-c3cccc(C#N)c3)nc2s1` [Example 9, 3-[4-Amino-6-(2-methoxy-benzyl)-thieno[2,3-d]pyrimidin-2-yl]-benzonitrile], the Ki in experiment [1] worked out at 0.00615 µM; in experiment [3], 0.0125 µM; in experiment [2], 0.129 µM.

On to `COc1ccccc1-c1nc(N)c2cc(Cc3ccccc3)sc2n1` [Example 11, 6-Benzyl-2-(2-methoxy-phenyl)-thieno[2,3-d]pyrimidin-4-ylamine], for which the Ki amounted to 0.217 µM in experiment [1] and 0.374 µM in experiment [2].

Regarding `Nc1nc(-c2cccc(C(F)(F)F)c2)nc2sc(Cc3ccccc3)cc12` [Example 12, 6-Benzyl-2-(3-trifluoromethyl-phenyl)-thieno[2,3-d]pyrimidin-4-ylamine], the Ki in experiment [1] was 1.02 µM; in experiment [2], greater than 1.04 µM.

With `COc1cccc(-c2nc(N)c3cc(Cc4ccccc4)sc3n2)c1` [Example 13, 6-Benzyl-2-(3-methoxy-phenyl)-thieno[2,3-d]pyrimidin-4-ylamine hydrochloride], the Ki was determined as 0.118 µM in experiment [1] and 0.266 µM in experiment [2].

Turning to `Nc1nc(-c2cccc(F)c2)nc2sc(Cc3ccccc3)cc12` [Example 14, 6-Benzyl-2-(3-fluoro-phenyl)-thieno[2,3-d]pyrimidin-4-ylamine], the inhibition constant (Ki) in experiment [1] is 0.0422 µM; in experiment [2], 0.123 µM.

In the case of `N#Cc1cccc(-c2nc(N)c3cc(Cc4ccccc4OC(F)(F)F)sc3n2)c1` [Example 15, 3-[4-Amino-6-(2-trifluoromethoxy-benzyl)-thieno[2,3-d]pyrimidin-2-yl]-benzonitrile], the results for the inhibition constant (Ki) in experiment [1] and in experiment [2] were 0.0391 µM and 1.01 µM, respectively.

Regarding `COc1ccccc1C(=O)c1cc2c(N)nc(-c3cccc(C#N)c3)nc2s1` [Example 17, 3-[4-Amino-6-(2-methoxy-benzoyl)-thieno[2,3-d]pyrimidin-2-yl]-benzonitrile], the inhibitory constant (Ki) in experiment [1] was determined as 0.023 µM; in experiment [2], 1.04 µM.

Turning to `COc1ccccc1C(=O)c1cc2c(N)nc(-c3cccc(OC(F)(F)F)c3)nc2s1` [Example 18, [4-Amino-2-(3-trifluoromethoxy-phenyl)-thieno[2,3-d]pyrimidin-6-yl]-(2-methoxy-phenyl)-methanone], the inhibition constant (Ki) in experiment [1] worked out at 0.175 µM; in experiment [2] it was 0.865 µM.

In the case of `COc1ccccc1Cc1cc2c(N)nc(-c3cccc(F)c3)nc2s1` [Example 19, 2-(3-Fluoro-phenyl)-6-(2-methoxy-benzyl)-thieno[2,3-d]pyrimidin-4-ylamine], the Ki came to 0.0624 µM in experiment [1], 0.0393 µM in experiment [3] and 0.418 µM in experiment [2].

For the compound `Nc1nc(-c2cccc(F)c2)nc2sc(Cc3cc(F)cc(F)c3)cc12` [Example 20, 6-(3,5-Difluoro-benzyl)-2-(3-fluoro-phenyl)-thieno[2,3-d]pyrimidin-4-ylamine], the Ki in experiment [1] was found to be 0.188 µM; in experiment [2], 0.564 µM.

On to `COc1ccccc1C(=O)c1cc2c(N)nc(-c3cccc(F)c3)nc2s1` [Example 21, [4-Amino-2-(3-fluoro-phenyl)-thieno[2,3-d]pyrimidin-6-yl]-(2-methoxy-phenyl)-methanone], for which the Ki turned out to be 0.0801 µM in experiment [1] and 0.162 µM in experiment [2].

One may read the Ki as the equilibrium dissociation constant of an inhibitor or competing ligand from its target. Higher therefore signals weaker binding.

Values taken from patent US20100093763A1, “PHENYL SUBSTITUTED THIENO[2,3-d]PYRIMIDINES AND THEIR USE AS ADENOSINE A2a RECEPTOR ANTAGONISTS” (priority 2008, published 2010).
